Experimental data taken from the NIST ThermoML archive (doi:10.1016/j.jct.2019.03.023).
Where “and” joins values, the source holds several entries; their conditions need not be identical. Equal entries are not always repeated.

Assay: molar heat capacity at constant volume
Details: Fluid (supercritical or subcritical phases), Vacuum adiabatic calorimetry

CC(C)O [propan-2-ol]
Details	molar heat capacity at constant volume
452.05 K, Mass density=581.06 kg/m3	180.71 J/K/mol
452.1 K, Mass density=581.06 kg/m3	178.12 J/K/mol
452.15 K, Mass density=581.06 kg/m3	174.34 J/K/mol
452.2 K, Mass density=581.06 kg/m3	178.36 J/K/mol
452.25 K, Mass density=581.06 kg/m3	175.9 J/K/mol
463.48 K, Mass density=329.2 kg/m3	270.31 J/K/mol
463.58 K, Mass density=329.2 kg/m3	271.63 J/K/mol
463.68 K, Mass density=329.2 kg/m3	275.36 J/K/mol
463.78 K, Mass density=329.2 kg/m3	270.31 J/K/mol
463.83 K, Mass density=329.2 kg/m3	274.63 J/K/mol
463.97 K, Mass density=329.2 kg/m3	279.44 J/K/mol
464.18 K, Mass density=329.2 kg/m3	278.72 J/K/mol and 277.04 J/K/mol
464.27 K, Mass density=329.2 kg/m3	280.16 J/K/mol
464.42 K, Mass density=329.2 kg/m3	278.24 J/K/mol
464.47 K, Mass density=329.2 kg/m3	275.54 J/K/mol
464.97 K, Mass density=329.2 kg/m3	277.34 J/K/mol
465.27 K, Mass density=329.2 kg/m3	272.77 J/K/mol
465.34 K, Mass density=329.2 kg/m3	278.54 J/K/mol
482.51 K, Mass density=329.2 kg/m3	288.1 J/K/mol
482.6 K, Mass density=329.2 kg/m3	289.9 J/K/mol
482.7 K, Mass density=329.2 kg/m3	288.46 J/K/mol
482.8 K, Mass density=329.2 kg/m3	287.73 J/K/mol
482.89 K, Mass density=329.2 kg/m3	288.34 J/K/mol
482.99 K, Mass density=329.2 kg/m3	292 J/K/mol
483.09 K, Mass density=329.2 kg/m3	287.19 J/K/mol
483.18 K, Mass density=329.2 kg/m3	291.64 J/K/mol
491.97 K, Mass density=274 kg/m3	317.84 J/K/mol
492.07 K, Mass density=274 kg/m3	313.28 J/K/mol
492.16 K, Mass density=274 kg/m3	317.9 J/K/mol
492.25 K, Mass density=274 kg/m3	317.9 J/K/mol
492.35 K, Mass density=274 kg/m3	322.53 J/K/mol
492.44 K, Mass density=274 kg/m3	322.53 J/K/mol
492.54 K, Mass density=274 kg/m3	322.59 J/K/mol
492.63 K, Mass density=274 kg/m3	322.59 J/K/mol
492.73 K, Mass density=274 kg/m3	318.08 J/K/mol
493.86 K, Mass density=255.8 kg/m3	333.29 J/K/mol
493.95 K, Mass density=255.8 kg/m3	333.29 J/K/mol
494.05 K, Mass density=255.8 kg/m3	323.49 J/K/mol
494.14 K, Mass density=255.8 kg/m3	338.27 J/K/mol
494.24 K, Mass density=255.8 kg/m3	333.41 J/K/mol
494.33 K, Mass density=255.8 kg/m3	323.61 J/K/mol
494.43 K, Mass density=255.8 kg/m3	333.47 J/K/mol
494.52 K, Mass density=255.8 kg/m3	328.54 J/K/mol
494.52 K, Mass density=324.5 kg/m3	307.87 J/K/mol
494.62 K, Mass density=324.5 kg/m3	303.36 J/K/mol
494.71 K, Mass density=324.5 kg/m3	303.18 J/K/mol
494.8 K, Mass density=324.5 kg/m3	309.79 J/K/mol
494.99 K, Mass density=324.5 kg/m3	306.6 J/K/mol
495.09 K, Mass density=324.5 kg/m3	314.12 J/K/mol
495.27 K, Mass density=324.5 kg/m3	308.05 J/K/mol
495.37 K, Mass density=324.5 kg/m3	311.05 J/K/mol
495.46 K, Mass density=324.5 kg/m3	303.36 J/K/mol
495.56 K, Mass density=324.5 kg/m3	314.96 J/K/mol
499.41 K, Mass density=274 kg/m3	329.44 J/K/mol
499.5 K, Mass density=274 kg/m3	338.64 J/K/mol
499.6 K, Mass density=274 kg/m3	334.07 J/K/mol
499.69 K, Mass density=274 kg/m3	338.7 J/K/mol
499.79 K, Mass density=274 kg/m3	334.13 J/K/mol
499.88 K, Mass density=274 kg/m3	338.76 J/K/mol
499.97 K, Mass density=274 kg/m3	338.82 J/K/mol
500.07 K, Mass density=274 kg/m3	338.82 J/K/mol
500.16 K, Mass density=274 kg/m3	334.25 J/K/mol
500.25 K, Mass density=255.8 kg/m3	348.07 J/K/mol
500.35 K, Mass density=255.8 kg/m3	343.74 J/K/mol
500.44 K, Mass density=255.8 kg/m3	348.67 J/K/mol
500.54 K, Mass density=255.8 kg/m3	348.73 J/K/mol
500.63 K, Mass density=255.8 kg/m3	345.79 J/K/mol
500.72 K, Mass density=255.8 kg/m3	348.79 J/K/mol
500.82 K, Mass density=255.8 kg/m3	338.94 J/K/mol
500.85 K, Mass density=329.2 kg/m3	318.14 J/K/mol
500.91 K, Mass density=255.8 kg/m3	346.15 J/K/mol
500.95 K, Mass density=329.2 kg/m3	311.35 J/K/mol
501 K, Mass density=281.9 kg/m3	333.77 J/K/mol
501.04 K, Mass density=329.2 kg/m3	310.87 J/K/mol
501.09 K, Mass density=281.9 kg/m3	334.85 J/K/mol
501.1 K, Mass density=281.9 kg/m3	338.09 J/K/mol
501.14 K, Mass density=329.2 kg/m3	313.94 J/K/mol
501.23 K, Mass density=329.2 kg/m3	314.06 J/K/mol
501.29 K, Mass density=281.9 kg/m3	337.01 J/K/mol
501.33 K, Mass density=329.2 kg/m3	310.75 J/K/mol
501.38 K, Mass density=281.9 kg/m3	335.39 J/K/mol
501.42 K, Mass density=329.2 kg/m3	316.76 J/K/mol
501.47 K, Mass density=281.9 kg/m3	337.49 J/K/mol
501.53 K, Mass density=329.2 kg/m3	318.08 J/K/mol
501.57 K, Mass density=281.9 kg/m3	336.95 J/K/mol
501.62 K, Mass density=329.2 kg/m3	320.49 J/K/mol
501.66 K, Mass density=281.9 kg/m3	338.58 J/K/mol
501.75 K, Mass density=281.9 kg/m3	331 J/K/mol
501.81 K, Mass density=329.2 kg/m3	316.64 J/K/mol
501.85 K, Mass density=343.1 kg/m3	312.61 J/K/mol
501.9 K, Mass density=329.2 kg/m3	317.06 J/K/mol
501.94 K, Mass density=266.3 kg/m3	345.85 J/K/mol
